Experimental data as given in PubChem BioAssay (NCI).
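Following 48 hours of exposure in 96-well plates, responses at five concentrations were used to interpolate endpoints linearly. TGI is the concentration that stops growth completely.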

What was measured:
Assay in all cases: DTP human tumour cell line panel, 48 h
A498 renal = system: A498 renal
OVCAR-4 ovarian = system: OVCAR-4 ovarian
COLO 205 colon = system: COLO 205 colon
SF-539 CNS = system: SF-539 CNS
DU-145 prostate = system: DU-145 prostate
U251 CNS = system: U251 CNS
BT-549 breast = system: BT-549 breast
SK-MEL-2 melanoma = system: SK-MEL-2 melanoma
HOP-92 NSCLC = system: HOP-92 NSCLC
UO-31 renal = system: UO-31 renal
HT29 colon = system: HT29 colon
LOX IMVI melanoma = system: LOX IMVI melanoma
SNB-19 CNS = system: SNB-19 CNS
PC-3 prostate = system: PC-3 prostate
MCF7 breast = system: MCF7 breast
KM12 colon = system: KM12 colon
NCI-H226 lung = system: NCI-H226 lung
NCI/ADR-RES ovarian = system: NCI/ADR-RES ovarian
IGROV1 ovarian = system: IGROV1 ovarian
SK-OV-3 ovarian = system: SK-OV-3 ovarian
SF-268 CNS = system: SF-268 CNS
K-562 leukemia = system: K-562 leukemia
MDA-N = system: MDA-N
SR leukemia = system: SR leukemia
UACC-62 melanoma = system: UACC-62 melanoma
MOLT-4 leukemia = system: MOLT-4 leukemia
T-47D breast = system: T-47D breast
EKVX NSCLC = system: EKVX NSCLC
SN12C renal = system: SN12C renal
MDA-MB-435 = system: MDA-MB-435
CAKI-1 renal = system: CAKI-1 renal
NCI-H522 lung = system: NCI-H522 lung
RPMI-8226 leukemia = system: RPMI-8226 leukemia
ACHN renal = system: ACHN renal
CCRF-CEM leukemia = system: CCRF-CEM leukemia
HCT-116 colon = system: HCT-116 colon
SF-295 CNS = system: SF-295 CNS
HOP-62 NSCLC = system: HOP-62 NSCLC
MALME-3M melanoma = system: MALME-3M melanoma
HCC-2998 colon = system: HCC-2998 colon
A549 NSCLC = system: A549 NSCLC
NCI-H460 lung = system: NCI-H460 lung
UACC-257 melanoma = system: UACC-257 melanoma
HS 578T breast = system: HS 578T breast
OVCAR-3 ovarian = system: OVCAR-3 ovarian
MDA-MB-231 breast = system: MDA-MB-231 breast
HCT-15 colon = system: HCT-15 colon
SK-MEL-28 melanoma = system: SK-MEL-28 melanoma
M14 melanoma = system: M14 melanoma
SK-MEL-5 melanoma = system: SK-MEL-5 melanoma
NCI-H23 lung = system: NCI-H23 lung
OVCAR-8 ovarian = system: OVCAR-8 ovarian
SW-620 colon = system: SW-620 colon
TK-10 renal = system: TK-10 renal
786-0 renal = system: 786-0 renal
HL-60(TB) leukemia = system: HL-60(TB) leukemia
OVCAR-5 ovarian = system: OVCAR-5 ovarian
RXF 393 renal = system: RXF 393 renal
SNB-75 CNS = system: SNB-75 CNS

`O=C(c1ccccc1)C(C(=O)c1ccccc1)c1nc2ccccc2sc1=O` was tested, and the TGI (A498 renal) was > 25 µM, the TGI (OVCAR-4 ovarian) was > 25 µM and the TGI (COLO 205 colon) was > 25 µM. For the same compound, the TGI (SF-539 CNS) was > 25 µM, the TGI (DU-145 prostate) was > 25 µM and the TGI (U251 CNS) was > 25 µM. The TGI (BT-549 breast) was > 25 µM, the TGI (SK-MEL-2 melanoma) was > 25 µM and the TGI (HOP-92 NSCLC) was 13 µM. The TGI (UO-31 renal) was > 25 µM, the TGI (HT29 colon) was > 25 µM and the TGI (LOX IMVI melanoma) was > 25 µM. For the same compound, the TGI (SNB-19 CNS) was > 25 µM, the TGI (PC-3 prostate) was > 25 µM and the TGI (MCF7 breast) was > 25 µM. For the same compound, the TGI (KM12 colon) was > 25 µM, the TGI (NCI-H226 lung) was 23 µM and the TGI (NCI/ADR-RES ovarian) was > 25 µM. The TGI (IGROV1 ovarian) was > 25 µM, the TGI (SK-OV-3 ovarian) was > 25 µM and the TGI (SF-268 CNS) was > 25 µM. For the same compound, the TGI (K-562 leukemia) was > 25 µM, the TGI (MDA-N) was > 25 µM and the TGI (SR leukemia) was […]. The TGI (UACC-62 melanoma) was 24 µM, the TGI (MOLT-4 leukemia) was > 25 µM and the TGI (T-47D breast) was > 25 µM. For the same compound, the TGI (EKVX NSCLC) was > 25 µM, the TGI (SN12C renal) was > 25 µM and the TGI (MDA-MB-435) was > 25 µM. The TGI (CAKI-1 renal) was > 25 µM, the TGI (NCI-H522 lung) was > 25 µM and the TGI (RPMI-8226 leukemia) was > 25 µM. The TGI (ACHN renal) was > 25 µM, the TGI (CCRF-CEM leukemia) was > 25 µM and the TGI (HCT-116 colon) was > 25 µM. The TGI (SF-295 CNS) was > 25 µM, the TGI (HOP-62 NSCLC) was > 25 µM and the TGI (MALME-3M melanoma) was > 25 µM. For the same compound, the TGI (HCC-2998 colon) was > 25 µM, the TGI (A549 NSCLC) was > 25 µM and the TGI (NCI-H460 lung) was > 25 µM. The TGI (UACC-257 melanoma) was > 25 µM, the TGI (HS 578T breast) was > 25 µM and the TGI (OVCAR-3 ovarian) was > 25 µM. For the same compound, the TGI (MDA-MB-231 breast) was > 25 µM, the TGI (HCT-15 colon) was > 25 µM and the TGI (SK-MEL-28 melanoma) was > 25 µM. For the same compound, the TGI (M14 melanoma) was > 25 µM, the TGI (SK-MEL-5 melanoma) was > 25 µM and the TGI (NCI-H23 lung) was > 25 µM. For the same compound, the TGI (OVCAR-8 ovarian) was > 25 µM, the TGI (SW-620 colon) was > 25 µM and the TGI (TK-10 renal) was > 25 µM. The TGI (786-0 renal) was > 25 µM, the TGI (HL-60(TB) leukemia) was > 25 µM and the TGI (OVCAR-5 ovarian) was > 25 µM. The TGI (RXF 393 renal) was > 25 µM.

In the case of `CCOC(=O)c1nc2cc(C(F)(F)F)ccc2nc1Nc1cc(OC)c(OC)c(OC)c1`, the TGI (A498 renal) is reported as > 100 µM, the TGI (COLO 205 colon) is reported as > 100 µM and the TGI (SF-539 CNS) is reported as > 100 µM. For the same compound, the TGI (DU-145 prostate) was > 100 µM, the TGI (U251 CNS) was > 100 µM and the TGI (BT-549 breast) was > 100 µM. For the same compound, the TGI (HOP-92 NSCLC) was > 100 µM, the TGI (UO-31 renal) was > 100 µM and the TGI (HT29 colon) was > 100 µM. The TGI (LOX IMVI melanoma) was > 100 µM, the TGI (SNB-19 CNS) was > 100 µM and the TGI (PC-3 prostate) was > 100 µM. For the same compound, the TGI (MCF7 breast) was > 100 µM, the TGI (KM12 colon) was > 100 µM and the TGI (NCI-H226 lung) was > 100 µM. For the same compound, the TGI (NCI/ADR-RES ovarian) was > 100 µM, the TGI (IGROV1 ovarian) was > 100 µM and the TGI (SK-OV-3 ovarian) was > 100 µM. The TGI (SF-268 CNS) was > 100 µM, the TGI (K-562 leukemia) was > 100 µM and the TGI (MDA-N) was > 100 µM. For the same compound, the TGI (SR leukemia) was > 100 µM, the TGI (UACC-62 melanoma) was > 100 µM and the TGI (MOLT-4 leukemia) was > 100 µM. For the same compound, the TGI (T-47D breast) was > 100 µM, the TGI (EKVX NSCLC) was > 100 µM and the TGI (SN12C renal) was > 100 µM. For the same compound, the TGI (MDA-MB-435) was > 100 µM, the TGI (CAKI-1 renal) was > 100 µM and the TGI (NCI-H522 lung) was > 100 µM. The TGI (RPMI-8226 leukemia) was > 100 µM, the TGI (ACHN renal) was > 100 µM and the TGI (CCRF-CEM leukemia) was > 100 µM. For the same compound, the TGI (HCT-116 colon) was > 100 µM, the TGI (SF-295 CNS) was > 100 µM and the TGI (HOP-62 NSCLC) was > 100 µM. The TGI (MALME-3M melanoma) was > 100 µM, the TGI (HCC-2998 colon) was > 100 µM and the TGI (A549 NSCLC) was > 100 µM. The TGI (NCI-H460 lung) was > 100 µM, the TGI (UACC-257 melanoma) was > 100 µM and the TGI (HS 578T breast) was > 100 µM. The TGI (OVCAR-3 ovarian) was > 100 µM, the TGI (MDA-MB-231 breast) was > 100 µM and the TGI (HCT-15 colon) was > 100 µM. For the same compound, the TGI (SK-MEL-28 melanoma) was > 100 µM, the TGI (M14 melanoma) was > 100 µM and the TGI (SNB-75 CNS) was > 100 µM. For the same compound, the TGI (SK-MEL-5 melanoma) was > 100 µM, the TGI (NCI-H23 lung) was > 100 µM and the TGI (OVCAR-8 ovarian) was > 100 µM. For the same compound, the TGI (SW-620 colon) was > 100 µM, the TGI (TK-10 renal) was > 100 µM and the TGI (786-0 renal) was > 100 µM. For the same compound, the TGI (HL-60(TB) leukemia) was > 100 µM, the TGI (OVCAR-5 ovarian) was > 100 µM and the TGI (RXF 393 renal) was > 100 µM.
